Assay results taken from patent publication US20230218631A1 (priority 2020, published 2023).

System: EHMT2/G9A, H3K9me2
[1] = 4-week CIE vs Air, same animals, FIG. 1C

## CCO [ethanol]
[1]
  EHMT2/G9A in dorsal striatum: no changes
  H3K9me2 in dorsal striatum: no changes
4-week CIE vs Air, FIG. 1B
  reduction of H3K9me2 levels in NAc: ~40%
  total histone H3 protein in NAc: no changes
4 weeks CIE vs Air, immunoblot, FIG. 1B
  reduction in NAc EHMT2/G9A protein levels: > 30%
